Results taken from patent US20090325959A1 (priority 2008, published 2009).
Where two headings read alike, the source gives them in different places.

Tests used:
[1] = target: T1, ROCK1 (Homo sapiens, UniProt Q13464); assay: Rho kinase inhibition assay (IMAP fluorescence polarization), ROCK1; assay type: biochemical;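 note: kinase reaction run 60 min at room temperature, then phosphorylated substrate captured on IMAP beads for 30 min, with fluorescence polarization read in mP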
T1 construct: purchased Upstate/Chemicon 14-601
Description: (§1) Following the pre-incubation, 10 μM ATP was added to initiate the reaction. After 60 minutes at room temperature, Molecular Devices IMAP™ binding solution was added to bind phosphorylated substrate. After 30 minutes of incubation in the presence of the IMAP™ beads, the fluorescence polarization was read and the ratio was reported as mP. IC50 values for compounds and EC50 values for ATP were calculated using the Prism software from Graphpad.

[2] = target: T2, ROCK2 (Homo sapiens, UniProt O75116); assay: Rho kinase inhibition assay (IMAP fluorescence polarization), ROCK2; assay type: biochemical;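 note: kinase reaction started with 10 µM ATP and run 60 min at room temperature, then phosphorylated substrate captured on IMAP beads for 30 min and fluorescence polarization read in mP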
T2 construct: purchased Upstate/Chemicon 14-451
Description: as §1

[3] = 10 μM ATP, read-out: ROCK2 Ki, Avg

T2 sequence (O75116 11-552 limits assumed): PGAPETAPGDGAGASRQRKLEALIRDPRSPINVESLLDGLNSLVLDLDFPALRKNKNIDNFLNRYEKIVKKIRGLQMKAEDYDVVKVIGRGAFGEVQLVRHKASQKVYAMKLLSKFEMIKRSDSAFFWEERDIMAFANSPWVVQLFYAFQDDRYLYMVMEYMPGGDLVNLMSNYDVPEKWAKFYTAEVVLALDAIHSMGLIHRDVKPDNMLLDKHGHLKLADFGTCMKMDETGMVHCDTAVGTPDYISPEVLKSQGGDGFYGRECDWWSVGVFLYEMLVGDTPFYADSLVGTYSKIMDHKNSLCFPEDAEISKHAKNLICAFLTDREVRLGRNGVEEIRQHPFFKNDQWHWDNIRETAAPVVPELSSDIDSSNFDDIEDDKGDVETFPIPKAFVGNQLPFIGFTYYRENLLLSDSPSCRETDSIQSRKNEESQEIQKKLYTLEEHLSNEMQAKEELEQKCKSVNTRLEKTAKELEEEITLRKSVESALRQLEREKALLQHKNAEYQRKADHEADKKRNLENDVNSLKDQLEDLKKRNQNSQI
T1 sequence (Q13464 17-535 limits assumed): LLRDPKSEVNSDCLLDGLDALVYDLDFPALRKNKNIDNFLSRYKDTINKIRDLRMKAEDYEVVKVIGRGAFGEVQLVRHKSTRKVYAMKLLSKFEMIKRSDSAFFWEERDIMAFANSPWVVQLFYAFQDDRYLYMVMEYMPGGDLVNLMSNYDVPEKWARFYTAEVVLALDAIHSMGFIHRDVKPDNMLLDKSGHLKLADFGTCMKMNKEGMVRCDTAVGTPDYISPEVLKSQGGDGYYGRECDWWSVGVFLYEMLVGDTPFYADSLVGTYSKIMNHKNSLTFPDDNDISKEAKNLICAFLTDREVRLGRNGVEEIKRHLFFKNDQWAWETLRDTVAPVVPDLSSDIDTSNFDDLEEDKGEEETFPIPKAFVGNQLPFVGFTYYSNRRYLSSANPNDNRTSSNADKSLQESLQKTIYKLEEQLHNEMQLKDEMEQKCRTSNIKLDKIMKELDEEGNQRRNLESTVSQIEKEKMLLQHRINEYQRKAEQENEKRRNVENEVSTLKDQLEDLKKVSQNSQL

Compound	Ki ([1]; Avg, 10 μM ATP) [nM]	Ki [2, 3] [nM]	Ki ([1]; average Ki) [nM]	Ki ([2]; average Ki, read-out: ROCK2 Ki) [nM]	Ki ([2]; read-out: ROCK2 Ki, Avg) [nM]
Clc1ccc(CN2CC[C@@H](Nc3ccc4[nH]ncc4c3)C2)cc1Cl [Compound 1.254, (R)-N-(1-(3,4-dichlorobenzyl)pyrrolidin-3-yl)-1H-indazol-5-amine]	116	39			
Cc1ccc(CN2CC[C@@H](Nc3ccc4[nH]ncc4c3)C2)cc1OCCO [Compound 1.276]	64.2	12.3			
OCc1ccc(CN2CCC[C@@H](Nc3ccc4[nH]ncc4c3)C2)cc1 [Compound 1.232, (R)-(4-((3-(1H-indazol-5-ylamino)piperidin-1-yl)methyl)phenyl)methanol]	137	20.8			
Cc1ccc(CN2CCC[C@@H](Nc3ccc4[nH]ncc4c3)C2)cc1OCC(N)=O [Compound 1.281]	71.8	7.4	71.8	7.4	
c1ccc(CN2CCC[C@H](Nc3cccc4cnccc34)C2)cc1 [Compound 2.050, (S)-N-(1-benzylpiperidin-3-yl)isoquinolin-5-amine]	368	251			
c1cc(N[C@@H]2CCN(Cc3nc4ccccc4[nH]3)C2)c2ccncc2c1 [Compound 2.074, (R)-N-(1-((1H-benzo[d]imidazol-2-yl)methyl)pyrrolidin-3-yl)isoquinolin-5-amine]	133	36.4			
c1ccc(Cn2ccnc2CN2CCC[C@@H](Nc3ccc4[nH]ncc4c3)C2)cc1 [Compound 1.263, (R)-N-(1-((1-benzyl-1H-imidazol-2-yl)methyl)piperidin-3-yl)-1H-indazol-5-amine]	2130	453			
Clc1cccc(CN2CCC[C@@H](Nc3ccc4[nH]ncc4c3)C2)c1 [Compound 1.191, (R)-N-(1-(3-chlorobenzyl)piperidin-3-yl)-1H-indazol-5-amine]	147	33.4			
c1csc(CN2CC[C@@H](Nc3cccc4cnccc34)C2)c1 [Compound 2.090, (R)-N-(1-(thiophen-2-ylmethyl)pyrrolidin-3-yl)isoquinolin-5-amine]	53.3	19.5			
COc1ccc(CN2CCC[C@H](Nc3ccc4[nH]ncc4c3)C2)cc1NS(C)(=O)=O [Compound 1.234, (S)-N-(5-((3-(1H-indazol-5-ylamino)piperidin-1-yl)methyl)-2-methoxyphenyl)methanesulfonamide]	1740	166			
Cn1ccnc1CN1CCC[C@H](Nc2ccc3[nH]ncc3c2)C1 [Compound 1.257, (S)-N-(1-((1-methyl-1H-imidazol-2-yl)methyl)piperidin-3-yl)-1H-indazol-5-amine]	1270	168			
OCCOc1cc(CN2CC[C@@H](Nc3cccc4cnccc34)C2)ccc1F [Compound 2.068, (R)-2-(2-fluoro-5-((3-(isoquinolin-5-ylamino)pyrrolidin-1-yl)methyl)phenoxy)ethanol]	8	5.8	8	5.8	
CNC(=O)Nc1cccc(CN2CCC[C@@H](Nc3ccc4[nH]ncc4c3)C2)c1 [Compound 1.265, (R)-1-(3-((3-(1H-indazol-5-ylamino)piperidin-1-yl)methyl)phenyl)-3-methylurea]	162	21.6			
c1cc(N[C@@H]2CCN(Cc3cnccn3)C2)c2ccncc2c1 [Compound 2.086, (R)-N-(1-(pyrazin-2-ylmethyl)pyrrolidin-3-yl)isoquinolin-5-amine]	1250	358			
OCCOc1cccc(CN2CCC[C@H](Nc3ccc4[nH]ncc4c3)C2)c1 [Compound 1.090, (S)-2-(3-((3-(1H-indazol-5-ylamino)piperidin-1-yl)methyl)phenoxy)ethanol]	281	24.9			
O=C(OCCOc1cccc(CN2CCC[C@@H](Nc3ccc4[nH]ncc4c3)C2)c1)c1ccccc1 [Compound 1.225, (R)-2-(3-((3-(1H-indazol-5-ylamino)piperidin-1-yl)methyl)phenoxy)ethyl benzoate]	605	189			
c1c[nH]c(CN2CCC[C@H](Nc3ccc4[nH]ncc4c3)C2)n1 [Compound 1.256, (S)-N-(1-((1H-imidazol-2-yl)methyl)piperidin-3-yl)-1H-indazol-5-amine]	700	85.5			
OCCOc1ccc(CN2CCC[C@H](Nc3ccc4[nH]ncc4c3)C2)cc1 [Compound 1.228]	1880	140			
c1cnc(CN2CC[C@@H](Nc3cccc4cnccc34)C2)nc1 [Compound 2.085, (R)-N-(1-(pyrimidin-2-ylmethyl)pyrrolidin-3-yl)isoquinolin-5-amine]	2390	812			
O=S(=O)(Nc1cccc(CN2CCC[C@H](Nc3ccc4[nH]ncc4c3)C2)c1)N1CCCCC1 [Compound 1.270, (S)-N-(3-((3-(1H-indazol-5-ylamino)piperidin-1-yl)methyl)phenyl)piperidine-1-sulfonamide]	130	9.9	130	9.9	
Clc1ccc(CN2CCC[C@@H](Nc3ccc4[nH]ncc4c3)C2)cc1Cl [Compound 1.144, (R)-N-(1-(3,4-dichlorobenzyl)piperidin-3-yl)-1H-indazol-5-amine]	97.6	19.5			

Compound	Ki ([1]; Avg, 10 μM ATP) [nM]	Ki [2, 3] [nM]	Ki ([1]; average Ki) [nM]	Ki ([2]; average Ki, read-out: ROCK2 Ki) [nM]	Ki ([2]; read-out: ROCK2 Ki, Avg) [nM]
CS(=O)(=O)Nc1cccc(CN2CCC[C@H](Nc3cccc4cnccc34)C2)c1 [Compound 2.037, (S)-N-(3-((3-(isoquinolin-5-ylamino)piperidin-1-yl)methyl)phenyl)methanesulfonamide]	921	182			
CCOc1cccc(CN2CCC[C@@H](Nc3ccc4[nH]ncc4c3)C2)c1 [Compound 1.203, (R)-N-(1-(3-ethoxybenzyl)piperidin-3-yl)-1H-indazol-5-amine]	329	41.6			
Cc1ccc(CN2CC[C@@H](Nc3cccc4cnccc34)C2)cc1NS(C)(=O)=O [Compound 2.076]	8	2.4	8	2.4	
CS(=O)(=O)Nc1cccc(CN2CC[C@H](Nc3ccc4[nH]ncc4c3)C2)c1 [Compound 1.095, (S)-N-(3-((3-(1H-indazol-5-ylamino)pyrrolidin-1-yl)methyl)phenyl)methanesulfonamide]	275	49.5			
Cn1c(CN2CC[C@@H](Nc3cccc4cnccc34)C2)nc2ccccc21 [Compound 2.075, (R)-N-(1-((1-methyl-1H-benzo[d]imidazol-2-yl)methyl)pyrrolidin-3-yl)isoquinolin-5-amine]	123	21.7			
Cc1nc(CN2CC[C@@H](Nc3cccc4cnccc34)C2)c(C)o1 [Compound 2.091, (R)-N-(1-((2,5-dimethyloxazol-4-yl)methyl)pyrrolidin-3-yl)isoquinolin-5-amine]	776	237			
CCOc1cccc(CN2CCC[C@H](Nc3ccc4[nH]ncc4c3)C2)c1 [Compound 1.179, (S)-N-(1-(3-ethoxybenzyl)piperidin-3-yl)-1H-indazol-5-amine]	292	19.3			
CC(=O)NCCOc1cccc(CN2CCC[C@@H](Nc3ccc4[nH]ncc4c3)C2)c1 [Compound 1.211, (R)-N-(2-(3-((3-(1H-indazol-5-ylamino)piperidin-1-yl)methyl)phenoxy)ethyl)acetamide]	395	57.6			
Cc1ccc(CN2CC[C@@H](Nc3cccc4cnccc34)C2)cc1OCC(N)=O [Compound 2.099, (R)-2-(5-((3-(isoquinolin-5-ylamino)pyrrolidin-1-yl)methyl)-2-methylphenoxy)acetamide]	15	3.8	15	3.8	
COc1c(CN2CC[C@@H](Nc3cccc4cnccc34)C2)cccc1NS(=O)(=O)N(C)C [Compound 2.097]	35.4		35.4		
CS(=O)(=O)c1ccc(CN2CCC[C@H](Nc3ccc4[nH]ncc4c3)C2)cc1 [Compound 1.181, (S)-N-(1-(4-(methylsulfonyl)benzyl)piperidin-3-yl)-1H-indazol-5-amine]	568	32.8			
COc1ccc(CN2CC[C@@H](Nc3cccc4cnccc34)C2)cc1NS(C)(=O)=O [Compound 2.098, (R)-N-(5-((3-(isoquinolin-5-ylamino)pyrrolidin-1-yl)methyl)-2-methoxyphenyl)methanesulfonamide]	382	73.5			
CCOC(=O)COc1cccc(CN2CCC[C@@H](Nc3ccc4[nH]ncc4c3)C2)c1 [Compound 1.147, (R)-ethyl 2-(3-((3-(1H-indazol-5-ylamino)piperidin-1-yl)methyl)phenoxy)acetate]	58.3	45.7			
Cc1c(CN2CCC[C@H](Nc3ccc4[nH]ncc4c3)C2)cccc1NS(=O)(=O)N(C)C [Compound 1.275]	402		402		
CC1CNCCN1S(=O)(=O)c1cccc2cnccc12 (centres unmarked) [Compound H7, reference compound]		125			
Clc1ccc(CN2CC[C@@H](Nc3ccc4[nH]ncc4c3)C2)cc1 [Compound 1.241, (R)-N-(1-(4-chlorobenzyl)pyrrolidin-3-yl)-1H-indazol-5-amine]	65.1				
CN(C)S(=O)(=O)Nc1cccc(CN2CCC[C@H](Nc3ccc4[nH]ncc4c3)C2)c1 [Compound 1.261]	307		307		
COc1nccc2c(N[C@@H]3CCN(Cc4ccc(C)c(OCCO)c4)C3)cccc12 [Compound 2.094, (R)-2-(5-((3-(1-methoxyisoquinolin-5-ylamino)pyrrolidin-1-yl)methyl)-2-methylphenoxy)ethanol]	16600				
NC(=O)COc1cccc(CN2CCC[C@@H](Nc3ccc4[nH]ncc4c3)C2)c1 [Compound 1.098, 2-(3-((3-(1H-indazol-5-ylamino)piperidin-1-yl)methyl)phenoxy)acetamide]		25			
Cc1ccc(CN2CC[C@@H](Nc3cccc4cnccc34)C2)cc1NS(=O)(=O)N(C)C [Compound 2.077]	33.7		33.7		
NCc1ccc(CN2CCC[C@@H](Nc3ccc4[nH]ncc4c3)C2)cc1 [Compound 1.188, (R)-N-(1-(4-(aminomethyl)benzyl)piperidin-3-yl)-1H-indazol-5-amine]					653
